Assays:
giant foxtail [1] = assay: Test A pre-/postemergence greenhouse test; assay type: in vivo, Setaria faberi; conditions: for Foxtail, Giant plant response rating: 0 to 100 scale
In short: (§1)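 Test compounds in non-phytotoxic solvent with surfactant were applied as a preemergence soil spray to seeded loam/sand pots and, concurrently, postemergence to plants at 2–10 cm, one- to two-leaf stage. About ten days in greenhouse, then injury visually rated against untreated controls.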

Surinam grass = assay: Test C pre-/postemergence test; assay type: in vivo, Brachiaria decumbens; conditions: for Surinam Grass plant response rating: preemergence, scale 0 (no effect) to 100 (complete control)
In short: (§2)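 Test chemicals were formulated with surfactant in a non-phytotoxic solvent and sprayed both on freshly planted seeds (preemergence) and on 1- to 4-leaf plants of 2–18 cm (postemergence). Flooded-paddy pots received compound directly into 3 cm of standing water, maintained for the test.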

velvetleaf = assay: Test C pre-/postemergence test; assay type: in vivo, Abutilon theophrasti; conditions: for Velvetleaf plant response rating: preemergence, scale 0 (no effect) to 100 (complete control)
In short: as §2

wild oat = assay: Test C pre-/postemergence test; assay type: in vivo, Avena fatua
In short: as §2

wheat [2] = assay: Test A pre-/postemergence greenhouse test; assay type: in vivo, Triticum aestivum; conditions: for Wheat plant response rating: 0 to 100 scale
In short: as §1

downy brome = assay: Test C pre-/postemergence test; assay type: in vivo, Bromus tectorum
In short: as §2

redroot pigweed = assay: Test A pre-/postemergence greenhouse test; assay type: in vivo, Amaranthus retroflexus; conditions: for Pigweed plant response rating: 0 to 100 scale
In short: as §1

[3] = test system: common (oilseed) sunflower; assay: Test C pre-/postemergence test; assay type: in vivo, Helianthus annuus; conditions: for Sunflower plant response rating: preemergence, scale 0 (no effect) to 100 (complete control)
In short: as §2

woolly cupgrass = assay: Test C pre-/postemergence test; assay type: in vivo, Eriochloa villosa
In short: as §2

catchweed bedstraw = assay: Test C pre-/postemergence test; assay type: in vivo, Galium aparine
Description: Seeds of plant species selected from blackgrass (Alopecurus myosuroides), downy brome (Bromus tectorum), green foxtail (Setaria viridis), Italian ryegrass (Lolium multiflorum), wheat (Triticum aestivum), wild oat (Avena fatua), catchweed bedstraw (Galium aparine), Russian thistle (Salsola kali), […] (Cynodon dactylon), Surinam grass (Brachiaria decumbens), cocklebur (Xanthium strumarium), corn (Zea mays), crabgrass (Digitaria sanguinalis), woolly cupgrass (Eriochloa villosa), giant foxtail (Setaria faberii), Goosegrass (Eleusin indica), johnsongrass (Sorghum halepense), kochia (Kochia scoparia), lambsquarters (Chenopodium album), morningglory (Ipomoea coccinea), eastern black nightshade (Solanum ptycanthum), yellow nutsedge (Cyperus esculentus), pigweed (Amaranthus retroflexus), common ragweed (Ambrosia elation), soybean (Glycine max), common (oilseed) sunflower (Helianthus annuus), and velvetleaf (Abutilon theophrasti) were planted and treated preemergence with test chemicals formulated in a non-phytotoxic solvent mixture which included a surfactant. At the same time, plants selected from these crop and weed species and also winter barley (Hordeum vulgare), canarygrass (Phalaris minor), and chickweed (Stellaria media) were treated with postemergence applications of some of the test chemicals formulated in the same manner. Plants ranged in height from 2 to 18 cm (1- to 4-leaf stage) for postemergence treatments. […] At time of treatment, test pots were flooded to 3 cm above the soil surface, treated by application of test compounds directly to the paddy water, and then maintained at that water depth for the duration of the test. […] A dash (-) response means no test result.

eastern black nightshade = assay: Test C pre-/postemergence test; assay type: in vivo, Solanum ptycanthum
In short: as §2

cocklebur = assay: Test C pre-/postemergence test; assay type: in vivo, Xanthium strumarium
In short: as §2

wheat [4] = assay: Test C pre-/postemergence test; assay type: in vivo, Triticum aestivum; conditions: for Wheat plant response rating: preemergence, scale 0 (no effect) to 100 (complete control)
In short: as §2

giant foxtail [5] = assay: Test C pre-/postemergence test; assay type: in vivo, Setaria faberii
In short: as §2

common ragweed = assay: Test C pre-/postemergence test; assay type: in vivo, Ambrosia elation
In short: as §2

blackgrass = assay: Test C pre-/postemergence test; assay type: in vivo, Alopecurus myosuroides
In short: as §2

lambsquarters = assay: Test C pre-/postemergence test; assay type: in vivo, Chenopodium album
In short: as §2

morningglory = assay: Test A pre-/postemergence greenhouse test; assay type: in vivo, Ipomoea spp.; conditions: 500 g ai/ha
In short: as §1

[6] = Postemergence, 125 g ai/ha, 0 is no effect, 100 is complete control
[7] = Postemergence, 500 g ai/ha, 0 is no effect, 100 is complete control
[8] = Preemergence, 125 g ai/ha, 0 no effect, 100 complete control
[9] = Preemergence, 500 g ai/ha, 0 to 100 scale where 0 is no effect and 100 is complete control
[10] = 31 g ai/ha, Preemergence, scale 0 to 100
[11] = 62 g ai/ha, preemergence, scale 0 (no effect) to 100 (complete control)
[12] = preemergence, 125 g ai/ha, scale 0 (no effect) to 100 (complete control)

Cn1nc(C(F)(F)F)c(CS(=O)(=O)c2ccc(Cl)c[n+]2[O-])c1OC(F)F [Compound 7]
Foxtail, Giant plant response rating (giant foxtail [1]; [6]): 30
Foxtail, Giant plant response rating (giant foxtail [1]; [7]): 70
Foxtail, Giant plant response rating (giant foxtail [1]; [8]): 90
Plant response rating, Foxtail, Giant (giant foxtail [1]; [9]): 90
Surinam Grass plant response rating (Surinam grass; 62 g ai/ha): 20
Plant response rating (0 to 100), Surinam Grass (Surinam grass; Preemergence, 250 g ai/ha): 70
Surinam Grass plant response rating (Surinam grass; 125 g ai/ha): 30
Velvetleaf plant response rating (velvetleaf; 62 g ai/ha): 0
Plant response rating (0 to 100), Velvetleaf (velvetleaf; Preemergence, 250 g ai/ha): 0
Velvetleaf plant response rating (velvetleaf; 125 g ai/ha): 0
Oat, Wild plant response rating (wild oat; [10]): 0
Oat, Wild plant response rating (wild oat; [11]): 30
Plant response rating (0 to 100), Oat, Wild (wild oat; Preemergence, 250 g ai/ha): 70
Oat, Wild plant response rating (wild oat; [12]): 40
Wheat plant response rating (wheat [2]; [6]): 0
Wheat plant response rating (wheat [2]; [7]): 20
Wheat plant response rating (wheat [2]; [8]): 20
Plant response rating, Wheat (wheat [2]; [9]): 50
Bromegrass, Downy plant response rating (downy brome; [10]): 0
Bromegrass, Downy plant response rating (downy brome; [11]): 0
Plant response rating (0 to 100), Bromegrass, Downy (downy brome; Preemergence, 250 g ai/ha): 0
Bromegrass, Downy plant response rating (downy brome; [12]): 0
Pigweed plant response rating (redroot pigweed; [6]): 60
Pigweed plant response rating (redroot pigweed; [7]): 70
Pigweed plant response rating (redroot pigweed; [8]): 100
Plant response rating, Pigweed (redroot pigweed; [9]): 100
Sunflower plant response rating ([3]; 62 g ai/ha): 0
Plant response rating (0 to 100), Sunflower ([3]; Preemergence, 250 g ai/ha): 0
Sunflower plant response rating ([3]; 125 g ai/ha): 0
Cupgrass, Woolly plant response rating (woolly cupgrass; [10]): 50
Cupgrass, Woolly plant response rating (woolly cupgrass; [11]): 70
Plant response rating (0 to 100), Cupgrass, Woolly (woolly cupgrass; Preemergence, 250 g ai/ha): 100
Cupgrass, Woolly plant response rating (woolly cupgrass; [12]): 98
Galium plant response rating (catchweed bedstraw; [10]): 40
Galium plant response rating (catchweed bedstraw; [11]): 85
Plant response rating (0 to 100), Galium (catchweed bedstraw; Preemergence, 250 g ai/ha): 95
Galium plant response rating (catchweed bedstraw; [12]): 90
Nightshade plant response rating (eastern black nightshade; [10]): 0
Nightshade plant response rating (eastern black nightshade; [11]): 50
Plant response rating (0 to 100), Nightshade (eastern black nightshade; Preemergence, 250 g ai/ha): 95
Nightshade plant response rating (eastern black nightshade; [12]): 50
Cocklebur plant response rating (cocklebur; [10]): 0
Cocklebur plant response rating (cocklebur; [11]): 0
Plant response rating (0 to 100), Cocklebur (cocklebur; Preemergence, 250 g ai/ha): 0
Cocklebur plant response rating (cocklebur; [12]): 0
Wheat plant response rating (wheat [4]; 62 g ai/ha): 10
Plant response rating (0 to 100), Wheat (wheat [4]; Preemergence, 250 g ai/ha): 30
Wheat plant response rating (wheat [4]; 125 g ai/ha): 20
Foxtail, Giant plant response rating (giant foxtail [5]; [10]): 50
Foxtail, Giant plant response rating (giant foxtail [5]; [11]): 50
Plant response rating (0 to 100), Foxtail, Giant (giant foxtail [5]; Preemergence, 250 g ai/ha): 100
Foxtail, Giant plant response rating (giant foxtail [5]; [12]): 80
Ragweed plant response rating (common ragweed; [10]): 0
Ragweed plant response rating (common ragweed; [11]): 80
Plant response rating (0 to 100), Ragweed (common ragweed; Preemergence, 250 g ai/ha): 100
Ragweed plant response rating (common ragweed; [12]): 100
Blackgrass plant response rating (blackgrass; [10]): 70
Blackgrass plant response rating (blackgrass; [11]): 70
Plant response rating (0 to 100), Blackgrass (blackgrass; Preemergence, 250 g ai/ha): 100
Blackgrass plant response rating (blackgrass; [12]): 85
Lambsquarters plant response rating (lambsquarters; [10]): 0
Lambsquarters plant response rating (lambsquarters; [11]): 0
Plant response rating (0 to 100), Lambsquarters (lambsquarters; Preemergence, 250 g ai/ha): 100
Lambsquarters plant response rating (lambsquarters; [12]): 80
Morningglory plant response rating (morningglory; Postemergence, 0 to 100 scale, 0 is no effect, 100 is complete control): 10
Plant response rating, Morningglory (morningglory; Preemergence, 0 to 100 scale where 0 is no effect and 100 is complete control): 30

— patent publication US20100298141A1, “SUBSTITUTED PYRIDINE N-OXIDE HERBICIDES” (E. I. DU PONT DE NEMOURS AND COMPANY, priority 2007, published 2010)
